Measured values published in ChEMBL document CHEMBL4507319 (2021).

What was measured:
Details in all cases: Compound concentration 1000.0 nM
[1] = molecular target: Mitogen-activated protein kinase kinase kinase 12 (Homo sapiens) (UniProt Q12852)
[2] = molecular target: Receptor tyrosine-protein kinase erbB-2 (Homo sapiens) (UniProt P04626)
[3] = molecular target: T1, Serine/threonine-protein kinase TAO3 (Homo sapiens) (UniProt Q9H2K8)
T1 sequence (whole entry): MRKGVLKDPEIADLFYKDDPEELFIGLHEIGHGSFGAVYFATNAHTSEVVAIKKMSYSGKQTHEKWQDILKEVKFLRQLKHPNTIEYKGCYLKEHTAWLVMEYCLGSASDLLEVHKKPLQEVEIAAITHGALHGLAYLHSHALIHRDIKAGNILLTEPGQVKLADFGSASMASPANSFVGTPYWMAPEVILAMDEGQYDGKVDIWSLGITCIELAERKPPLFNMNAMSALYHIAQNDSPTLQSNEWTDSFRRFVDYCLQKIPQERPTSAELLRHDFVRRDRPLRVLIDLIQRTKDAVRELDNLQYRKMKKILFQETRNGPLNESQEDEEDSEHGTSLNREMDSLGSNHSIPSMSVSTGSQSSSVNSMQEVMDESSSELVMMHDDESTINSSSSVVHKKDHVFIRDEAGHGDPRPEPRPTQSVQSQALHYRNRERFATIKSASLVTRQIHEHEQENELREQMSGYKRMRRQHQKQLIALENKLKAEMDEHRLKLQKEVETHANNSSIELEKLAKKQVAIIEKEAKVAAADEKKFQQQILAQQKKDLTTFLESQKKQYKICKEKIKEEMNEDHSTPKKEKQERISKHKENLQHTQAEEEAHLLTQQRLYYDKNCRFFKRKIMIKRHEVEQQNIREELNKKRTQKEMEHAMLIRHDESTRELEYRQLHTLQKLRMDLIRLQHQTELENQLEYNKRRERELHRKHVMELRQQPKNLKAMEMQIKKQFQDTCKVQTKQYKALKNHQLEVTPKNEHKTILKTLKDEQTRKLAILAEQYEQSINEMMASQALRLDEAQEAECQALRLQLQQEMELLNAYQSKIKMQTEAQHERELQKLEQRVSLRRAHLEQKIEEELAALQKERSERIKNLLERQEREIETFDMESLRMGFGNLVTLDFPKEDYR

[4] = test system: Receptor-type tyrosine-protein kinase FLT3 (Homo sapiens), P36888 [K663Q]
[5] = molecular target: MAP/microtubule affinity-regulating kinase 3 (Homo sapiens) (UniProt P27448)
Chain of MAP/microtubule affinity-regulating kinase 3 (Homo sapiens) (P27448 whole entry, looked up): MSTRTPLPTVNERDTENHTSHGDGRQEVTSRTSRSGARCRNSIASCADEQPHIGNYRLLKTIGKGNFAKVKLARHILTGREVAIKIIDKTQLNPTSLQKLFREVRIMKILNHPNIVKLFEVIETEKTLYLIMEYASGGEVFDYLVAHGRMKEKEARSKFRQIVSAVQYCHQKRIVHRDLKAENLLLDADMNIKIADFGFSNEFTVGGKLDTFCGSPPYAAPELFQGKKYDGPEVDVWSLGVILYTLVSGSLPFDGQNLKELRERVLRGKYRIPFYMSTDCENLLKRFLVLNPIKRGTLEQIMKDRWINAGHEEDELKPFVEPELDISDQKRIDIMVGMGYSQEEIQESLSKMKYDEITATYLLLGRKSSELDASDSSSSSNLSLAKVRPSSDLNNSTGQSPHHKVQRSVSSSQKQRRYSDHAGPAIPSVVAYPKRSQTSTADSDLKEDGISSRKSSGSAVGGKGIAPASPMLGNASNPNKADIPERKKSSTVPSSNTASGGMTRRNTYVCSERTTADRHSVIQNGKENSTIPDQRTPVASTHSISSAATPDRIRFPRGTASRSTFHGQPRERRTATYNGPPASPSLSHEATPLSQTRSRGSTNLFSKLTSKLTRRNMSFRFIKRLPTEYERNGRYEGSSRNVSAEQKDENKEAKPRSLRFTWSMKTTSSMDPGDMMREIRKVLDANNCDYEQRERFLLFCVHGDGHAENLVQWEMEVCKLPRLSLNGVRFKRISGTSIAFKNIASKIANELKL

[6] = molecular target: Fibroblast growth factor receptor 3 (Homo sapiens) (UniProt P22607)
Chain of Fibroblast growth factor receptor 3 (Homo sapiens) (P22607 23-806 limits assumed): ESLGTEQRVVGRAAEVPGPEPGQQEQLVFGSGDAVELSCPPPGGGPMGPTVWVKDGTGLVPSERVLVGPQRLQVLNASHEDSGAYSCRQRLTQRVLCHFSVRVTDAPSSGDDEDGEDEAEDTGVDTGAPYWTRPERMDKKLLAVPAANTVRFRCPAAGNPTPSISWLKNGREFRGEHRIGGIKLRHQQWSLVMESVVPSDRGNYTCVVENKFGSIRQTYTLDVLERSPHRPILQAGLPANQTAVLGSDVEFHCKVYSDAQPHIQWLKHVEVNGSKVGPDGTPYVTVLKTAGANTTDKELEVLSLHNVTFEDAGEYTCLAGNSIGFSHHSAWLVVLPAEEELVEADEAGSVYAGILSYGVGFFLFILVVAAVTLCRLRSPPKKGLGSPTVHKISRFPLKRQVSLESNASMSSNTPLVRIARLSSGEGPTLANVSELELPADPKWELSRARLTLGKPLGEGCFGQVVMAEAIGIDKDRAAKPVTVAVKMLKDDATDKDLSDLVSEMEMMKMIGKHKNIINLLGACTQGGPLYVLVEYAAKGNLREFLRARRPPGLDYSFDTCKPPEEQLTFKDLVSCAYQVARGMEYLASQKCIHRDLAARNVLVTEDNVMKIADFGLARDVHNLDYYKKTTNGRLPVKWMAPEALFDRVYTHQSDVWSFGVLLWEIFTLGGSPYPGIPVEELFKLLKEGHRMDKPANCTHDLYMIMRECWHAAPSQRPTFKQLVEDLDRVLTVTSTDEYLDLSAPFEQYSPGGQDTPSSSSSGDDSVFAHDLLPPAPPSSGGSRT

[7] = molecular target: Cyclin-dependent kinase-like 2 (Homo sapiens) (UniProt Q92772)
Chain of Cyclin-dependent kinase-like 2 (Homo sapiens) (Q92772 whole entry): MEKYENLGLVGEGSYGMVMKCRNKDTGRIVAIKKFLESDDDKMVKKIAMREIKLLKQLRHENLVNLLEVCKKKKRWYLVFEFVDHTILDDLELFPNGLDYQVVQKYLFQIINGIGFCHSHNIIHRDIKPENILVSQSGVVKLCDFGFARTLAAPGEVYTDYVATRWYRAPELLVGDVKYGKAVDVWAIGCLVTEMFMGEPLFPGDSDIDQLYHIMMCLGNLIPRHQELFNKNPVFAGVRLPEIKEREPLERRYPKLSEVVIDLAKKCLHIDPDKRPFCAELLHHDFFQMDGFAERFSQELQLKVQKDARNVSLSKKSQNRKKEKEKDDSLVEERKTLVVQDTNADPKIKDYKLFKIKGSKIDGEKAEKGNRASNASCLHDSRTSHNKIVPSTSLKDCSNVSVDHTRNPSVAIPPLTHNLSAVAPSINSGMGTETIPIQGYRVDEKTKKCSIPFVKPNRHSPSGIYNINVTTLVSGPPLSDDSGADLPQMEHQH

[8] = molecular target: T2, Ephrin type-B receptor 1 (Homo sapiens) (UniProt P54762)
T2 sequence (whole entry): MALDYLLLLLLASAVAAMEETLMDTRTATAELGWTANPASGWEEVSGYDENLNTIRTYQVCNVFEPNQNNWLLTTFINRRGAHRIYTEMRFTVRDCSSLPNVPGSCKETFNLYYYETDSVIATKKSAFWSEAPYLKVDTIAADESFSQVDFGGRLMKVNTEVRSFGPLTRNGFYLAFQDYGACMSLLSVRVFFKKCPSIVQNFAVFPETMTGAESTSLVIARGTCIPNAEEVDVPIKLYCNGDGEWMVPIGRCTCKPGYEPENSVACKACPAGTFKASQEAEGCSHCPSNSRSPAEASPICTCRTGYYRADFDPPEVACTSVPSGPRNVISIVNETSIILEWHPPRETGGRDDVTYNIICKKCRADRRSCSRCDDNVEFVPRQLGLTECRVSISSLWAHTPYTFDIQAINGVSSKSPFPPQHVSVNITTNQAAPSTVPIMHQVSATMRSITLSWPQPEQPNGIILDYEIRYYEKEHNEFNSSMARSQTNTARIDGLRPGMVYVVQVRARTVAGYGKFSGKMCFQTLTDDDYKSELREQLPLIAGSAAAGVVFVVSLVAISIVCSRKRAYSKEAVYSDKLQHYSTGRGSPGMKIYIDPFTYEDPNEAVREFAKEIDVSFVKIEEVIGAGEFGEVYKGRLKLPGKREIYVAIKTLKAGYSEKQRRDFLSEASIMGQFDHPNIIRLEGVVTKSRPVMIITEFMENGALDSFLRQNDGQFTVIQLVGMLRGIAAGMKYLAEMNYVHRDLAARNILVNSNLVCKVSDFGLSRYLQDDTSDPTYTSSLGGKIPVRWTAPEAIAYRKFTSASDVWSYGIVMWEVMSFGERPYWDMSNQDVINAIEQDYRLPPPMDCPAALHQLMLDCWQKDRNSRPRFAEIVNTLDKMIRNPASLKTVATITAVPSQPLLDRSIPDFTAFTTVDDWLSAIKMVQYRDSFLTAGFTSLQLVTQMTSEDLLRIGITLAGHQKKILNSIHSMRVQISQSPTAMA

[9] = molecular target: Mitogen-activated protein kinase kinase kinase kinase 1 (Homo sapiens) (UniProt Q92918)
Chain of Mitogen-activated protein kinase kinase kinase kinase 1 (Homo sapiens) (Q92918 whole entry, looked up): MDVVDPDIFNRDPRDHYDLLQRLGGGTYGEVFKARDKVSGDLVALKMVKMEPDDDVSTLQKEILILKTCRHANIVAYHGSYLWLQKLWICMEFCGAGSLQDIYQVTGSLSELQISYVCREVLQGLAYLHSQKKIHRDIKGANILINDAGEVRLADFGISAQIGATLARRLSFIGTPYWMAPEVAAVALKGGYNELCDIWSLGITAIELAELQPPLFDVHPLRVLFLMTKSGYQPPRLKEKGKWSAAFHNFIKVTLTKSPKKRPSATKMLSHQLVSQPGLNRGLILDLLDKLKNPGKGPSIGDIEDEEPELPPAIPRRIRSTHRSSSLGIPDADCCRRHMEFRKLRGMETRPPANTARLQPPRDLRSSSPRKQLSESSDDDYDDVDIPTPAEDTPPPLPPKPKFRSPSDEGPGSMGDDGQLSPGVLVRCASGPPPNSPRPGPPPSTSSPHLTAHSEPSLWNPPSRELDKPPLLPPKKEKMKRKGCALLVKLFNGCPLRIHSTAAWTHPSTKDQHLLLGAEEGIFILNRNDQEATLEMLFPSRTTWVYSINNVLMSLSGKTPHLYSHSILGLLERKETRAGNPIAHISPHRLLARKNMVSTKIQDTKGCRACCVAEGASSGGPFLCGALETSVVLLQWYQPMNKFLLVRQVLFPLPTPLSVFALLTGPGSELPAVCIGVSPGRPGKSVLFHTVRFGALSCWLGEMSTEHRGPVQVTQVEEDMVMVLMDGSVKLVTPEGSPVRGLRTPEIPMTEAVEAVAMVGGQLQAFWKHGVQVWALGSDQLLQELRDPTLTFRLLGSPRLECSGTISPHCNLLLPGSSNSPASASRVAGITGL

[10] = test system: Mast/stem cell growth factor receptor Kit (Homo sapiens), P10721 [V559D]
Chain of Mast/stem cell growth factor receptor Kit (Homo sapiens), P10721 [V559D] (P10721 whole entry V559D): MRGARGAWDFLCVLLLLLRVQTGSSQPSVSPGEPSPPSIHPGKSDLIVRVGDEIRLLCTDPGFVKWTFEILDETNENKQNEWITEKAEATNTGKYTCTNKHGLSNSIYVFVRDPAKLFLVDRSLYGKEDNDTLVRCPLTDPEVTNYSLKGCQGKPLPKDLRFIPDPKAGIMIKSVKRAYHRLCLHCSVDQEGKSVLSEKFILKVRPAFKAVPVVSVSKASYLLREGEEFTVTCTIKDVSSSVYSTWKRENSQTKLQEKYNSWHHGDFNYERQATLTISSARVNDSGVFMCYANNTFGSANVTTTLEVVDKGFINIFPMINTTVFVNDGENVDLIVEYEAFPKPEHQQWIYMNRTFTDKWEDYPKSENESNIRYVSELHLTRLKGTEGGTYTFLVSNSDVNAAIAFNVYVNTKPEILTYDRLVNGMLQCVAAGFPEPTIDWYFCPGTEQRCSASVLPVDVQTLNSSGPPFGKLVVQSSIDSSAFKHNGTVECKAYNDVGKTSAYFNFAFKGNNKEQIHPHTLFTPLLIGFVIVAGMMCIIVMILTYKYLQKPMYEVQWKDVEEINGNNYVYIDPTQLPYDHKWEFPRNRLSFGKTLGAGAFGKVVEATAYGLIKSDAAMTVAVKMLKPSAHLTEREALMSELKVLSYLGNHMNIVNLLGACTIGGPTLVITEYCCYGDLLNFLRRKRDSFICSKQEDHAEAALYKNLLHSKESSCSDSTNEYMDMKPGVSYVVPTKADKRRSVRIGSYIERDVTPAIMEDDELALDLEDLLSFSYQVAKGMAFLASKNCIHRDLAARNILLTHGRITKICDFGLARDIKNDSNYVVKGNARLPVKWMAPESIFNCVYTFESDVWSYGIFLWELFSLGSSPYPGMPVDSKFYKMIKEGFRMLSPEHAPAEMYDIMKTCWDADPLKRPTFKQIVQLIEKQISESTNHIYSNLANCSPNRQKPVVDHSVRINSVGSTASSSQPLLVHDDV

Chain of Receptor tyrosine-protein kinase erbB-2 (Homo sapiens) (P04626 whole entry): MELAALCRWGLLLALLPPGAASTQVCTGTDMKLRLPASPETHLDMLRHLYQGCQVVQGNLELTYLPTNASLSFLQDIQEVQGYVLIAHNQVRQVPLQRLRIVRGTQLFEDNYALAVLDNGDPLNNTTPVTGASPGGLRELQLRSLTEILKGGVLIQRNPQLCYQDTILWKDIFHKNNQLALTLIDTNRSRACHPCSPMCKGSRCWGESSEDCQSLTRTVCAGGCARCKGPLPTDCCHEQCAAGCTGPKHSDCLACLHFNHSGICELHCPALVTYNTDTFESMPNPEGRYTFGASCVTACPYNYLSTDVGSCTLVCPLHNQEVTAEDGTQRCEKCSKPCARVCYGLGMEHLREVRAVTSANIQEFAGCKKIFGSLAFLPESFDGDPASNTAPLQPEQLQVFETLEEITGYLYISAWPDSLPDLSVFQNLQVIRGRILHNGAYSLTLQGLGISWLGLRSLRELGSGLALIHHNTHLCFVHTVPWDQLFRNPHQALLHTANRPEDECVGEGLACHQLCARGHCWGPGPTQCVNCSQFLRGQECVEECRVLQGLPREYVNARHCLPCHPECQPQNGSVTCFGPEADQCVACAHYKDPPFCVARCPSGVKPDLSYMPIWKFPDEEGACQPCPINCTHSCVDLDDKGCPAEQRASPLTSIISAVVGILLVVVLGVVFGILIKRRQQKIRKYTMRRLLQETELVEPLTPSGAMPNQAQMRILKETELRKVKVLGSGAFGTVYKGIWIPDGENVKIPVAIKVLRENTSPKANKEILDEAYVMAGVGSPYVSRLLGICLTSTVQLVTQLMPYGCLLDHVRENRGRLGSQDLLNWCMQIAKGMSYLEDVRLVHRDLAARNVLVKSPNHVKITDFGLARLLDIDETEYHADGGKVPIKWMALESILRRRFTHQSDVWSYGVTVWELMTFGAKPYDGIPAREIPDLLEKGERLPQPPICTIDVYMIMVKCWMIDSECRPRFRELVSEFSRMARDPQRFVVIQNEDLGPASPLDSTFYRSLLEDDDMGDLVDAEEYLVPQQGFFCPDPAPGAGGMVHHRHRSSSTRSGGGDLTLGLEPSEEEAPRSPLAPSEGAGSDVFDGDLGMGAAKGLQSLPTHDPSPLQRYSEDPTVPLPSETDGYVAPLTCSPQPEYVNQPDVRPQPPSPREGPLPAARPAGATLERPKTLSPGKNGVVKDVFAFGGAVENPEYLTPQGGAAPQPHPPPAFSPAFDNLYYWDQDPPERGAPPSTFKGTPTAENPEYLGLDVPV

With CCc1ccccc1C(=O)Nc1n[nH]c2c(C)c(F)c(C3C(C#N)=C(C)N(C)C(C)=C3C#N)cc12 [BAY-3827] the residual activity [1] was 94%, the residual activity [2] was 71% and the residual activity [3] was 38%. For the same molecule, the residual activity [4] was 13%, the residual activity [5] was 30% and the residual activity [6] was 93%. For the same molecule, the residual activity [7] was 94%, the residual activity [8] was 100% and the residual activity [9] was 73%. The residual activity [10] was 83%.
With CC1=C(C#N)C(c2ccc3c(c2)c(NC(=O)c2ccccc2C)nn3C)C(C#N)=C(C)N1 [BAY-974] the residual activity [1] was 80%, the residual activity [2] was 86% and the residual activity [3] was 80%. It also gave a residual activity [4] of 100%, a residual activity [5] of 92% and a residual activity [6] of 94%. It also gave a residual activity [7] of 100%, a residual activity [8] of 99% and a residual activity [9] of 81%. The residual activity [10] was 100%.
